This test concerns C. auris. Further details: species or system mice. Particulars: mouse, in vivo.

Numbered stars: 1 amine (or outer) side, 2 acyl side, 3 side chain; on linkers, the order of the positions; unused ones are H or OH. Bridge positions count the residues as written; N and C are the ends. Square brackets hold non-standard residues; d marks the D form. Peptide text beside a SMILES is read from it. * marks the point of attachment. hTyr(3S-OH,4S-OH,3'-OSO3H) = N[C@H](C(=O)O)[C@H](O)[C@@H](O)c1ccc(O)c(OS(=O)(=O)O)c1; Orn(4R-OH,5R-OH) = O=C([C@H](C[C@@H](O)[C@@H](O)N[*:3])N[*:1])[*:2]; Pro(3S-OH,4S-Me) = C[C@H]1CN[C@H](C(=O)O)[C@H]1O; X1 = CCCCCOc1ccc(-c2cc(-c3ccc(C(=O)*)cc3)no2)cc1; Gln(3R-OH) = NC(=O)C[C@@H](O)[C@H](N)C(=O)O; Hyp = O=C(O)[C@@H]1C[C@@H](O)CN1

In turn, `CCCCCOc1ccc(-c2cc(-c3ccc(C(=O)N[C@H]4C[C@@H](O)[C@@H](O)NC(=O)[C@@H]5[C@@H](O)[C@@H](C)CN5C(=O)[C@H]([C@H](O)CC(N)=O)NC(=O)[C@H]([C@H](O)[C@@H](O)c5ccc(O)c(OS(=O)(=O)O)c5)NC(=O)[C@@H]5C[C@@H](O)CN5C(=O)[C@H]([C@@H](C)O)NC4=O)cc3)no2)cc1` [micafungin] (X1-[Orn(4R-OH,5R-OH)]T[Hyp][hTyr(3S-OH,4S-OH,3'-OSO3H)][Gln(3R-OH)][Pro(3S-OH,4S-Me)]; lactam 1-C) displayed a survival of 20%.

Values taken from patent US12324830B2 (priority 2018, dated 2025).
